Some targets named below: TGFBR2 (Homo sapiens, UniProt P37173); COT1/MAP3K8 (Homo sapiens, UniProt P41279); HIPK1 (Homo sapiens, UniProt Q86Z02); HPK1/MAP4K1 (Homo sapiens, UniProt Q92918); LOK/STK10 (Homo sapiens, UniProt O94804); VRK2 (Homo sapiens, UniProt Q86Y07); TTBK2 (Homo sapiens, UniProt Q6IQ55).
Holding throughout (test): biochemical
Design in all cases: Reaction Biology kinase panel, control compounds in 10-dose IC50 mode at Km ATP

Another assay addresses T1, ARAF (Homo sapiens, UniProt P10398).
T1 sequence (P10398 1-606): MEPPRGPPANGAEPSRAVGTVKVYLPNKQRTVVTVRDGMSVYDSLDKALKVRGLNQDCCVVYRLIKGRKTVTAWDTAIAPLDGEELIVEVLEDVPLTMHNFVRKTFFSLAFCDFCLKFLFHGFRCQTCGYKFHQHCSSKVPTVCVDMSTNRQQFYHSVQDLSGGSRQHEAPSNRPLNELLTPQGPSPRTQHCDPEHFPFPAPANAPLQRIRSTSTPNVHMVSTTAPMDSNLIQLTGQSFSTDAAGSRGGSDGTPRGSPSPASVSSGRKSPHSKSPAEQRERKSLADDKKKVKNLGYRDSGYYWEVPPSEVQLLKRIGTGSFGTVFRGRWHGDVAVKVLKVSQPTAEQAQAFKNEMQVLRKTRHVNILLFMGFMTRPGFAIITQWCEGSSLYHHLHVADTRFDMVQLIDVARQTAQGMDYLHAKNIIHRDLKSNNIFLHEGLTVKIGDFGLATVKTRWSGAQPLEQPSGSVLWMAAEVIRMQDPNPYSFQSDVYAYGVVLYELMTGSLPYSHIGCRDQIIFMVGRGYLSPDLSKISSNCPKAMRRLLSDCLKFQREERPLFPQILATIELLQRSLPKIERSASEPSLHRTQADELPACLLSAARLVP

A further assay concerns the target T2, CK2a (Homo sapiens, UniProt P68400).
T2 construct: gene CSNK2A1

The next assay has as its target T3, DYRK4 (Homo sapiens, UniProt Q9NR20).
T3 sequence (Q9NR20 1-520): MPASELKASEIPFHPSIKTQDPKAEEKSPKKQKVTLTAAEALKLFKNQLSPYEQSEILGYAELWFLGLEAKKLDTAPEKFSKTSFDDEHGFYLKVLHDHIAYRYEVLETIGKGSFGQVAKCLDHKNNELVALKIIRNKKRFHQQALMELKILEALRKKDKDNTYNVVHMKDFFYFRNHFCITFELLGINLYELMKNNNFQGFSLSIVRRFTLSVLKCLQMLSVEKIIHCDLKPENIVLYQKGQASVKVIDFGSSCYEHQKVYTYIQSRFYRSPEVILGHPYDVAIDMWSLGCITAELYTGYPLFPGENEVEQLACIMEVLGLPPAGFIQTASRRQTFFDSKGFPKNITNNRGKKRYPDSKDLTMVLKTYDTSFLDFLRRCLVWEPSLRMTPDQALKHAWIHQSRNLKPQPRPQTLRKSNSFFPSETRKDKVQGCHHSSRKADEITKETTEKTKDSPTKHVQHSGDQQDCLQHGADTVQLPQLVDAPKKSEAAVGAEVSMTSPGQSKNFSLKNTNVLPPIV

A further assay addresses T4, ZAK/MLTK (Homo sapiens, UniProt Q9NYL2).
T4 construct: gene MAP3K20

The target of a further assay is TTBK1 (Homo sapiens, UniProt Q5TCY1). Particulars: control compound, Km ATP; read-out: IC50 (M) Control Cmpd.
TTBK1, sequence (Q5TCY1 whole entry): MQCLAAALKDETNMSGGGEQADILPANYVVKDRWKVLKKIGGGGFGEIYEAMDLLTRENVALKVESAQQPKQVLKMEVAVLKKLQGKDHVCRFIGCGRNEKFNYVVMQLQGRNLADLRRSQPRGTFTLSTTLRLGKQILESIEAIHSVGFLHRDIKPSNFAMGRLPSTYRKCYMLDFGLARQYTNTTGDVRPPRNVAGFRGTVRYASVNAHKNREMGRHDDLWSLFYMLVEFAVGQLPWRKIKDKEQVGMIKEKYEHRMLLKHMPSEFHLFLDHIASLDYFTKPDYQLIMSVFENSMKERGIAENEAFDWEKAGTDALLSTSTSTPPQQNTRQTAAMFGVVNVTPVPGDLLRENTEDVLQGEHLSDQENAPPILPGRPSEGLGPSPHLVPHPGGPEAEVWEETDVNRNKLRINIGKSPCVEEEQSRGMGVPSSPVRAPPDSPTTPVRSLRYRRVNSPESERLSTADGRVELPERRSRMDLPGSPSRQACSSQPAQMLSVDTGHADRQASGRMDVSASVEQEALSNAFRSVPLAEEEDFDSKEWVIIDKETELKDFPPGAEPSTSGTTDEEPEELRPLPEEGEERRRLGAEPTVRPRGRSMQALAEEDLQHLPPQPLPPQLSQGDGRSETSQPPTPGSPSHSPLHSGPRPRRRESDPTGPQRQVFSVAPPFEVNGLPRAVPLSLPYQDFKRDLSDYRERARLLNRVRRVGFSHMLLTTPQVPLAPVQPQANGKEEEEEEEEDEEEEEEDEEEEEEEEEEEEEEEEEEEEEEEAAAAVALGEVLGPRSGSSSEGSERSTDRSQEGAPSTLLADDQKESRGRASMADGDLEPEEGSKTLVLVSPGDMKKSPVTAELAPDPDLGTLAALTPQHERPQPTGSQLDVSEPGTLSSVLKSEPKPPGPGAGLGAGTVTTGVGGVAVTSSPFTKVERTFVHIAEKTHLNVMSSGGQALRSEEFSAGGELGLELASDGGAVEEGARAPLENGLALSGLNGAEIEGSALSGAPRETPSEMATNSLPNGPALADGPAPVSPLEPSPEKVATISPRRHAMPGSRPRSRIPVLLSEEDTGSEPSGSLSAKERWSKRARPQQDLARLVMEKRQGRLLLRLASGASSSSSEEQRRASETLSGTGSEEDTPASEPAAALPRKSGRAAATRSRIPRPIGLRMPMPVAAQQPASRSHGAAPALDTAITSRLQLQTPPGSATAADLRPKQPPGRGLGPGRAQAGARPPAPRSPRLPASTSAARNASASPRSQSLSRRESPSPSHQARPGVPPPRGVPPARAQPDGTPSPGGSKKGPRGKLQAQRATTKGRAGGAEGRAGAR
In another assay the target is T5, ERK1 (Homo sapiens, UniProt P27361).
T5 construct: gene MAPK3
T5 sequence (P27361 whole entry): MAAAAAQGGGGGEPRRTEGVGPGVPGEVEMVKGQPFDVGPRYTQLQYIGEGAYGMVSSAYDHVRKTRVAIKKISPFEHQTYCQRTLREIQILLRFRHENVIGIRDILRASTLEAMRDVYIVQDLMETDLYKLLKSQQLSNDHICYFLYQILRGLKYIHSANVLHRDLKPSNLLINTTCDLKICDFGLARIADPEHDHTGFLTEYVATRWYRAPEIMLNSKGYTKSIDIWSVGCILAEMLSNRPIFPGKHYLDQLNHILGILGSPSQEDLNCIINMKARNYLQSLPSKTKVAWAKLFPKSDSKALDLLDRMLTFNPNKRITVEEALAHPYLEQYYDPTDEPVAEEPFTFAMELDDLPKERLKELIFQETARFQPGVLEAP

Another assay addresses T6, PKMYT1 (Homo sapiens, UniProt Q99640).
T6 sequence (Q99640 1-499): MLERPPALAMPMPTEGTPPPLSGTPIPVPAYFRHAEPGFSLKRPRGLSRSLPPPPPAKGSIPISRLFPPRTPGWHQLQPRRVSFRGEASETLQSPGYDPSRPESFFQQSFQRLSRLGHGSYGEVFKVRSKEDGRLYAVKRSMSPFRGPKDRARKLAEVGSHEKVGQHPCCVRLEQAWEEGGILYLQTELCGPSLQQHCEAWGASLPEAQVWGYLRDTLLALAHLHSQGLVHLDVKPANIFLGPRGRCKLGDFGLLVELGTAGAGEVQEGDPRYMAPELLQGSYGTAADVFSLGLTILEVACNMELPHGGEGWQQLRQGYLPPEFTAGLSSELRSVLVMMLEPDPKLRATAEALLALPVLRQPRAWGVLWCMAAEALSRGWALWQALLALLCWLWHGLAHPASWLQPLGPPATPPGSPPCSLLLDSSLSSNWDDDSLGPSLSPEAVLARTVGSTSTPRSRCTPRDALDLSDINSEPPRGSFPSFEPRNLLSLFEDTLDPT

LOK/STK10, sequence (O94804 whole entry): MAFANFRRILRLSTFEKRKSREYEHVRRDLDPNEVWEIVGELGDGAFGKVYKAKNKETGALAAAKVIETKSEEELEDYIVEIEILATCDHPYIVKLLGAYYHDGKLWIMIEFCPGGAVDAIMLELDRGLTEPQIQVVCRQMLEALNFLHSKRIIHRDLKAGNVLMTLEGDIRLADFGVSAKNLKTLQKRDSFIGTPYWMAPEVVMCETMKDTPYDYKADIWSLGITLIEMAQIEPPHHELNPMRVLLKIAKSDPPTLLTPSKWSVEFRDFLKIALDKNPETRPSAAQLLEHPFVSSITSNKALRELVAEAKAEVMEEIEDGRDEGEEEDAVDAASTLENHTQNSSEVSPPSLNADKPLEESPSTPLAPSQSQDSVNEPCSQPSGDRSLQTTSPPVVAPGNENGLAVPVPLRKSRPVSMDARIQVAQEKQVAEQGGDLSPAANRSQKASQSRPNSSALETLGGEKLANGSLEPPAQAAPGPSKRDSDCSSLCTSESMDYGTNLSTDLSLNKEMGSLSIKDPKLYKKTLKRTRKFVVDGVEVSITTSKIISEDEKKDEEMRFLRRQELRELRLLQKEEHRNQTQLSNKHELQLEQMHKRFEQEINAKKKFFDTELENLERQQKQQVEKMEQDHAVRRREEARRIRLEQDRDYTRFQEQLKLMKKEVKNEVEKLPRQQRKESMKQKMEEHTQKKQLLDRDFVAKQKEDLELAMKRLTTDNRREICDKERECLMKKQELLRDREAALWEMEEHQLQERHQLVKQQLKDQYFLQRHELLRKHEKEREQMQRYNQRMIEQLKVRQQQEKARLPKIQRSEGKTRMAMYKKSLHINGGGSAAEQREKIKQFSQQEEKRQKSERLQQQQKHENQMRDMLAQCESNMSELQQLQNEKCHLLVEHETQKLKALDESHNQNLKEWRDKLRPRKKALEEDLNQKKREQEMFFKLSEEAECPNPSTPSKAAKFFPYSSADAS
HIPK1, sequence (Q86Z02 whole entry): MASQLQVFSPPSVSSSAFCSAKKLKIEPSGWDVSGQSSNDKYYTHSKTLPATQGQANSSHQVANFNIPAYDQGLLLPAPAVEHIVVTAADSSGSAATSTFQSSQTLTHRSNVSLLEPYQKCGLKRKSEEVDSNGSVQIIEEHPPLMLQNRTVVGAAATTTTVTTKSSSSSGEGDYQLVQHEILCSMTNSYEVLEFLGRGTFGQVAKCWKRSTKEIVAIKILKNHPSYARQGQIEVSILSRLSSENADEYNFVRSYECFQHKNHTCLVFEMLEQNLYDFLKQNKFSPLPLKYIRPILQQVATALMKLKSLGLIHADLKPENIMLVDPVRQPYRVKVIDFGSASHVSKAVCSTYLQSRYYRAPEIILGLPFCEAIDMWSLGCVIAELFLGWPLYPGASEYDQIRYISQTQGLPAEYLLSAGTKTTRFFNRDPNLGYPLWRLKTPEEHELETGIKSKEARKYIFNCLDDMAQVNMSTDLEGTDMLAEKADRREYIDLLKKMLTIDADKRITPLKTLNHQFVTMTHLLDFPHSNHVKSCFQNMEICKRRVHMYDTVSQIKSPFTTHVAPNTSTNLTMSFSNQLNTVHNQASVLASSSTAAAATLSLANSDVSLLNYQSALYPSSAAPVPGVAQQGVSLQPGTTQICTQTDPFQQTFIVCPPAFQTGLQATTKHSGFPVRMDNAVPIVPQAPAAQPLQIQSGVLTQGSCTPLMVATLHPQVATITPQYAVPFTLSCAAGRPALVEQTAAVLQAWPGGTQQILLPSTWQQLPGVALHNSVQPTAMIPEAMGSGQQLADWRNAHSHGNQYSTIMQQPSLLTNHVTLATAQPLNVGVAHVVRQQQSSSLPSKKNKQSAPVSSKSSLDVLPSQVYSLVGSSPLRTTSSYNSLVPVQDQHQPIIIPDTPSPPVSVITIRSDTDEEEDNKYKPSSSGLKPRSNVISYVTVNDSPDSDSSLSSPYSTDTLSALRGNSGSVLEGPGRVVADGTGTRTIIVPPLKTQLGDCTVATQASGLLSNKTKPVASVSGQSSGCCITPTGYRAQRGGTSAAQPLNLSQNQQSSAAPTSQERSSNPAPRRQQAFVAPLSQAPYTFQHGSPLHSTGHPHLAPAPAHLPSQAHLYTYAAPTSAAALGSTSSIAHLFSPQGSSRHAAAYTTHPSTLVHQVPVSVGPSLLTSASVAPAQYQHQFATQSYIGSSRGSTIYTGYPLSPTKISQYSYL
TTBK2, sequence (Q6IQ55 whole entry): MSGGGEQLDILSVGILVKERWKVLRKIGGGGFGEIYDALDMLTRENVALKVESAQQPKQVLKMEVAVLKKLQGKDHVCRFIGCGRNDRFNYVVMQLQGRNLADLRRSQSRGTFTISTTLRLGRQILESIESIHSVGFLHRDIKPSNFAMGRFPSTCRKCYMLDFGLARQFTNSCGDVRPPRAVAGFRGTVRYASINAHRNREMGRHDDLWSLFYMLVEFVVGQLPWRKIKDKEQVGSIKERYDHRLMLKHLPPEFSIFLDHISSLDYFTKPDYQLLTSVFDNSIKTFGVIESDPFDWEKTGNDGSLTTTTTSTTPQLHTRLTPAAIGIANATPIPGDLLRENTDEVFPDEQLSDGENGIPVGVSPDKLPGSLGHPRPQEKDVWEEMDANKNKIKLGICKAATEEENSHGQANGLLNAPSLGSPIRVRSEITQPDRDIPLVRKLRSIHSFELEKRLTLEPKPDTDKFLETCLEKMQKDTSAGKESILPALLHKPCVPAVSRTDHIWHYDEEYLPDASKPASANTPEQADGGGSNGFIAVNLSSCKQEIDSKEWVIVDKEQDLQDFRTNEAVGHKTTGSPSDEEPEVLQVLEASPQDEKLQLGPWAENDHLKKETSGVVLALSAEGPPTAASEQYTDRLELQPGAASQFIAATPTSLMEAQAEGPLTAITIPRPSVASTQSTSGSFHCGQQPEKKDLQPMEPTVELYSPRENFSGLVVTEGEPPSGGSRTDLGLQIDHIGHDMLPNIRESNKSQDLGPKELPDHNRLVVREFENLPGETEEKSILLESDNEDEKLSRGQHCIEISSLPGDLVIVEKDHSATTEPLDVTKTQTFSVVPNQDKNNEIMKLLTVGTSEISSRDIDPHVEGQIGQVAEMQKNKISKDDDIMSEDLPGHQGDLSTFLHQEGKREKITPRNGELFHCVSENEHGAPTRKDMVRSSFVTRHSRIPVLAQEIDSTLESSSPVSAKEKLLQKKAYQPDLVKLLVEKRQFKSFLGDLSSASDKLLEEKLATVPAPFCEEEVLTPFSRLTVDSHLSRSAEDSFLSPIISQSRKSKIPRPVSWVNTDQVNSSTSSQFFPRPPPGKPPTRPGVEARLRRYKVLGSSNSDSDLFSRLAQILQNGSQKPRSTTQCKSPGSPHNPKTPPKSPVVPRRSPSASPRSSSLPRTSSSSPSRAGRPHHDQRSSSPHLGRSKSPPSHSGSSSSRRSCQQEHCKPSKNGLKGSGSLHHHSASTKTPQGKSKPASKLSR

Broadly, the IC50 is the midpoint of a concentration-inhibition curve. For the compound `O=C1Nc2ccc(I)cc2/C1=C/c1cc(Br)c(O)c(Br)c1` [GW5074], the IC50 amounted to 15.1 nM at ARAF, 231 nM against CK2a, 1610 nM against DYRK4 and 3110 nM against ZAK/MLTK.

For `c1ccc2c(-c3cnn4cc(-c5ccc(N6CCNCC6)cc5)cnc34)ccnc2c1` [LDN193189], the concentration for half-maximal inhibition (IC50) at TGFBR2 was found to be 54.8 nM.

`Cn1cc(C2=C(c3cn(CCCSC(=N)N)c4ccccc34)C(=O)NC2=O)c2ccccc21` [RO-31-8220]: the IC50 came to 10200 nM on COT1/MAP3K8; 3060 nM against HIPK1; 51 nM against HPK1/MAP4K1; 141 nM against LOK/STK10; 5730 nM against VRK2.

Turning to `Oc1ccc(-c2nc(-c3ccncc3)c(-c3ccc(F)cc3)[nH]2)cc1` [SB202190], the half-maximal inhibitory concentration (IC50) on TTBK2 was 5470 nM; on TTBK1 it was 1.31e-05 M.

On ERK1, `O=C(Nc1ccc2[nH]nc(-c3ccncc3)c2c1)[C@@H]1CCN(CC(=O)N2CCN(c3ccc(-c4ncccn4)cc3)CC2)C1` [SCH772984] registered an IC50 of 9.34 nM.

Compound `CN[C@@H]1C[C@H]2O[C@@](C)([C@@H]1OC)n1c3ccccc3c3c4c(c5c6ccccc6n2c5c31)C(=O)NC4` [STAUROSPORINE] had a half-maximal inhibitory concentration (IC50) against PKMYT1 of 10.4 nM.

Values taken from article PMC8429728, “TNK1 is a ubiquitin-binding and 14-3-3-regulated kinase that can be targeted to block tumor growth” (Nature Communications, 2021).
